The record followed here is US11066369B2, “N-(pyridin-2-yl)pyridine-sulfonamide derivatives and their use in the treatment of disease” (Novartis AG, priority 2016, dated 2021).

One assay concerns the target T1, delF508-CFTR (Homo sapiens, UniProt P13569, DEL508-508).
T1 construct: functional activity of the CFTR channel (Chloride ion transport) in patient derived primary human bronchial epithelial cells; host or cells: patient-derived primary human bronchial epithelial cells (delF508-CFTR)
In words: Measurement of delF508-CFTR functional activity in primary human bronchial epithelial cells (HBECs) using Multi-Transepithelial Clamp Circuit (MTECC-24) assay. The format is cell-based. The conditions noted are these: primary CF HBECs; for MTECC24 CFHBEC- Amax %: test compound added 24h before assay plus potentiator, relative to reference combination (2 μM corrector + 0.5 μM potentiator); for EC50: test compound added 24h before assay, in the presence of potentiator, mean of at least two replicates, read-out: MTECC24 CFHBEC- EC50. The text has this: [formula] Measurement of delF508-CFTR Functional Activity in Primary Human Bronchial Epithelial Cells (HBECs) Using Multi-Transepithelial Clamp Circuit (MTECC-24) Assay
This assay measures the functional activity of the CFTR channel (Chloride ion transport) in patient derived primary human bronchial epithelial cells with forskolin activation and in the presence of the CFTR corrector/potentiator combo.
Primary human delF508-CFTR bronchial epithelial cells were purchased from Asterand and cultured according to previously established methods (Fulcher et al. (2005) Methods Mol Med 107: 183-206). Briefly, vendor supplied cells were rapidly defrosted and added to a T175 flask in 50 mL growth media (Lonza BEBM media with Lonza BEGM singlequots). Media was replaced after 24h and then cells were fed every other day until cells were 80-90% confluent, at which point cells were cryopreserved. These P1 vials were thawed at 37° C. as needed and added to T175 flasks in 50 mL growth media at 5×10^5 cells/flask. Media was replaced after 24h, and then cells were fed every other day until 80-90% confluent. Cells were lifted with 5 mL accutase at 37° C. for 5 minutes, centrifuged at 1000 rpms for 5 min (300 g), and resuspended in differentiation media (50% BEBM in DMEM, BEGM singlequots, all trans retinoic acid (5×10^−8M)). Cells were then counted and cell suspension was added to collagen coated inserts at 3×10^4 cells/insert in 0.15 mL with 0.5 mL differentiation media on the basolateral side.
Apical and basolateral media were replaced on alternate days, and following day 7 (or when confluent plus 2 days), air liquid interface was established for approximately two weeks by removal of apical media. One day prior to use on the MTECC24 system (EP-Devices, EP Design, Belgium), 0.15 mL of warmed (37° C.) PBS was added to the apical surface of the cultures and returned to humidifier (37° C., 5% CO2 incubator) for 30 min before aspirating the apical surface to remove any mucus.
Compound treatments were then prepared. Compound dilutions, typically a 10 point concentration response with 1 in 3 dilution steps, were made in 100% DMSO before dilution 1 in 1000 into differentiation medium with a final DMSO concentration of 0.1% or 0.2% for the study. Compound containing medium was then transferred into the wells of a 24 well plate at 0.5 mL per well and warmed for 30 min in a 37° C. incubator prior to transferring washed inserts into the compound containing plates. Cells were incubated in compound containing medium (basolateral only) for 24h prior to measurement in the MTECC24 system.
Following 24 hr treatment, compound dilutions were prepared again, diluted 1 in 1000 into 37° C. assay medium (F-12 Coon's modified, 20 mM HEPES pH7.4 with TRIS Base, No FCS or bicarbonate). Cells which were treated for 24h with test compound were then transferred into plates containing 0.75 mL compound treatment in assay medium (basolateral) and 0.25 mL of the compound containing assay medium was added to the apical surface. The plates were then transferred to the heated plate compartments of the MTECC24 system for 45 min prior to measurements (this can also be done in a non-CO2 37° C. humidified incubator). Basolateral temperature should not exceed 36.5° C. and apical temperature should be approximately 35.5° C.
Modulators were added sequentially as follows while the MTECC24 instrument recorded the equivalent short circuit current (Ieq):
Prior to dilution into F-12 medium the stocks are as follows:
Amiloride stock is 10 mM in H2O
Forskolin Stock is 10 mM in 100% DMSO
(S)-3-amino-6-methoxy-N-(3,3,3-trifluoro-2-hydroxy-2-methylpropyl)-5-(trifluoromethyl)picolinamide is 0.5 mM stock in 100% DMSO
INH-172 (4-[[4-Oxo-2-thioxo-3-[3-trifluoromethyl)phenyl]-5-thiazolidinylidene]methyl]benzoic acid) stock is 30 mM in 100% DMSO
The data was normalized using the median signal from wells treated with 0.1% DMSO as a baseline. […]

Assay [1] has as its target T2, horseradish peroxidase (HRP) tagged delF508-CFTR (Homo sapiens, UniProt P13569, DEL508-508).
T2 construct: expressed in transfected cells
In words: Measurement of delF508-CFTR-HRP surface expression in CFBE41o- cells.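 As to DelF508-CFTR-HRP Amax %: percent efficacy relative to reference corrector lumacaftor.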 The class given is cell-based. The conditions noted are these: for Emax: read-out: DelF508-CFTR-HRP Amax %. The method in brief:
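Surface-trafficked delF508-CFTR detected via extracellular HRP tag, read as luminescence from a membrane-impermeant substrate in CFBE41o- cells. Cells pre-induced 48h with 500 ng/mL doxycycline, then exposed 24h at 37° C to a 10-point, 3-fold dilution series from 10 μM (DMSO ≤0.5%). Triplicate dose-responses fitted logistically for EC50 after per-plate normalization; fold change versus reference compound.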

Where [2] appears, read: delF508-CFTR-HRP surface expression, CFBE41o- cells.
[3] abbreviates: delF508-CFTR-HRP surface expression, CFBE41o- cells, read-out: DelF508-CFTR-HRP EC50.

Structures are written as SMILES. Where a name gives a salt, the structure may show the parent alone. Read-outs that look alike come from different tables or passages of the source.

T2 sequence (P13569 with tags, fused parts or gaps DEL508-508): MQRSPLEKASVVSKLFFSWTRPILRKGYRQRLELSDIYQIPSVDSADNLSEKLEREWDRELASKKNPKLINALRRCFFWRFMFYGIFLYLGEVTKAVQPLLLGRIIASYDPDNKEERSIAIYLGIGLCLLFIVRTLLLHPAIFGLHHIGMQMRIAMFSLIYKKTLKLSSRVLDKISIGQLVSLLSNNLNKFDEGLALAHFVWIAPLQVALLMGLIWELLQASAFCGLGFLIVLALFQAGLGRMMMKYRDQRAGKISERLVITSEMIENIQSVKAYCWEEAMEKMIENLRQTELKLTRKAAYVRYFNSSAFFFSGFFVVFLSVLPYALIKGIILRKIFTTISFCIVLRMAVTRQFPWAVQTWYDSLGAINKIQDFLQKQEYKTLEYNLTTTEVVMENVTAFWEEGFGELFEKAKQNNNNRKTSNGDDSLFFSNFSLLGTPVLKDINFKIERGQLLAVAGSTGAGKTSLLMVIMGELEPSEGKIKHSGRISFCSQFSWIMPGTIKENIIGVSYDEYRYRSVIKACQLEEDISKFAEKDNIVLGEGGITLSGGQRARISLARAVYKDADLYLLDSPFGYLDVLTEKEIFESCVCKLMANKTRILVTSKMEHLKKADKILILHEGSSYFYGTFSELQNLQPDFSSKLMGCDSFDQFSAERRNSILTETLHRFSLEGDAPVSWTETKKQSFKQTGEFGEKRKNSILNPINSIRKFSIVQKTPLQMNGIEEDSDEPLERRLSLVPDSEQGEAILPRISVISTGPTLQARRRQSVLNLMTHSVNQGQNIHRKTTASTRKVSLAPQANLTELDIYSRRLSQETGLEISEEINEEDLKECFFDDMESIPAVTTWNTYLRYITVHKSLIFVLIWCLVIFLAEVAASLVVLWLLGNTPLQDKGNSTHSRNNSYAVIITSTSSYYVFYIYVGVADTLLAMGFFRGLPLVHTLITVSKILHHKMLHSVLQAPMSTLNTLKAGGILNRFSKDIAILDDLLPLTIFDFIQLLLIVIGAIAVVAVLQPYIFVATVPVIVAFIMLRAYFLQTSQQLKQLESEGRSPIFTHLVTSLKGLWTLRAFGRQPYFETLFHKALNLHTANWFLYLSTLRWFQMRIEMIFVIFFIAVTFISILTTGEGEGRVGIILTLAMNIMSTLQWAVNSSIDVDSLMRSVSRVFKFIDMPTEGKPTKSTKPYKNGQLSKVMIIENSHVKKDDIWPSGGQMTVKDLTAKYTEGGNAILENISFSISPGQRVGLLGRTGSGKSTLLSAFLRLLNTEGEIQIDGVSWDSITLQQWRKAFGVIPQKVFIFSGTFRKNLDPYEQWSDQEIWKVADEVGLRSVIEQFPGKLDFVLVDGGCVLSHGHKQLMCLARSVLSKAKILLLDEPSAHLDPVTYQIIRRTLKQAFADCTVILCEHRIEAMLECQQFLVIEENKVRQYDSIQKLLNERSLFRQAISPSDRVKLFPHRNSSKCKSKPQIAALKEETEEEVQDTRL
T1 sequence (P13569 with tags, fused parts or gaps DEL508-508): as above

In general, EC50 refers to the concentration giving half of the maximal effect. On to `CO[C@@H]1CNCC[C@H]1Nc1cccc(S(=O)(=O)Nc2ccc(C(F)(F)F)c(-c3ccccc3C)n2)n1` (racemic) [Example 116, 6-(((3R,4R)-3-methoxypiperidin-4-yl)amino)-N-(6-(o-tolyl)-5-(trifluoromethyl)pyridin-2-yl)pyridine-2-sulfonamide Hydrochloride], for which, at delF508-CFTR, the “MTECC24 CFHBEC- Amax %” value is 60.8%. Moreover, the EC50 at delF508-CFTR was 107 nM; in assay [1] (setting [3]), 3160 nM. For the same molecule, in assay [1] (setting [2]), the Emax amounted to 370%.

With `Cc1ccccc1-c1nc(NS(=O)(=O)c2cccc(N[C@@H]3CCOC[C@@H]3O)n2)ccc1C(F)(F)F` (single isomer, unassigned) [Example 276], at delF508-CFTR, the “MTECC24 CFHBEC- Amax %” value is on record as 84.7% and the EC50 came out at 18.5 nM. In addition, the Emax in assay [1] (setting [2]) came out at 523%. In addition, in assay [1] (setting [3]), the concentration giving a half-maximal response (EC50) was 3200 nM.

Turning to `Cc1ccc(F)cc1-c1nc(NS(=O)(=O)c2cccc(N[C@@H]3CCOC[C@H]3O)n2)ccc1Cl` [Example 273, N-[5-chloro-6-(5-fluoro-2-methylphenyl)pyridin-2-yl]-6-{[(3S,4R)-3-hydroxyoxan-4-yl]amino}pyridine-2-sulfonamide], at delF508-CFTR, the “MTECC24 CFHBEC- Amax %” value stood at 70.9% and the EC50 is 6.4 nM. The EC50 in assay [1] (setting [3]) came out at 1380 nM.

On to `Cc1ccc(F)cc1-c1nc(NS(=O)(=O)c2cccc(N3CCN4C[C@@H](F)CC4[C@@H]3C)n2)ccc1Cl` (stereo partly drawn) [Example 135, N-(5-chloro-6-(5-fluoro-2-methylphenyl)pyridin-2-yl)-6-((1S,7S)-7-fluoro-1-methylhexahydropyrrolo[1,2-a]pyrazin-2(1H)-yl)pyridine-2-sulfonamide], for which, at delF508-CFTR, the “MTECC24 CFHBEC- Amax %” value came to 95.3%. The EC50 on delF508-CFTR was found to be 13 nM; in assay [1] (setting [3]), 3440 nM. The Emax in assay [1] (setting [2]) stood at 804%.

On to `Cc1ccc(F)cc1-c1nc(NS(=O)(=O)c2ccc(N)nc2)ccc1Cl` [Example 44, 6-amino-N-(5-chloro-6-(5-fluoro-2-methylphenyl)pyridin-2-yl)pyridine-3-sulfonamide], for which, at delF508-CFTR, the “MTECC24 CFHBEC- Amax %” value turned out to be 61.6% and the EC50 amounted to 46 nM. Further, the Emax in assay [1] (setting [2]) was determined as 346%. The EC50 in assay [1] (setting [3]) was 1770 nM.

For the molecule `Cc1ccc(F)cc1-c1nc(NS(=O)(=O)c2cccc(N3CC(O)C3)n2)ccc1Cl` [Example 234, N-(5-chloro-6-(5-fluoro-2-methylphenyl)pyridin-2-yl)-6-(3-hydroxyazetidin-1-yl)pyridine-2-sulfonamide], at delF508-CFTR, the “MTECC24 CFHBEC- Amax %” value amounted to 84.0% and the EC50 was found to be 11.3 nM. In addition, in assay [1] (setting [2]), the Emax is 513%. Further, the EC50 in assay [1] (setting [3]) came to 1930 nM.

Turning to `CCc1ccccc1-c1nc(NS(=O)(=O)c2cccc(N3CCC[C@H](C(=O)O)C3)n2)ccc1C(F)(F)F` [Example 370, (S)-1-(6-(N-(6-(2-ethylphenyl)-5-(trifluoromethyl)pyridin-2-yl)sulfamoyl)pyridin-2-yl)piperidine-3-carboxylic Acid], on delF508-CFTR, the “MTECC24 CFHBEC- Amax %” value was determined as 105.9%. The EC50 is 0.85 nM at delF508-CFTR and 1470 nM in assay [1] (setting [3]). Moreover, the Emax in assay [1] (setting [2]) is 601%.

`Cc1ccc(F)cc1-c1nc(NS(=O)(=O)c2cccc(N3CCNCC3)n2)ccc1Cl` [Example 193, N-(5-chloro-6-(5-fluoro-2-methylphenyl)pyridin-2-yl)-6-(piperazin-1-yl)pyridine-2-sulfonamide hydrochloride]: the “MTECC24 CFHBEC- Amax %” value on delF508-CFTR came to 81.2%. For the same molecule, the EC50 at delF508-CFTR was 178 nM; in assay [1] (setting [3]), 3920 nM. In assay [1] (setting [2]), the Emax was 385%.

Turning to `O=S(=O)(Nc1ccc(C(F)(F)F)c(-c2ccccc2Cl)n1)c1cccc(N2CC(O)C2)n1` [Example 222, N-(6-(2-chlorophenyl)-5-(trifluoromethyl)pyridin-2-yl)-6-(3-hydroxyazetidin-1-yl)pyridine-2-sulfonamide], on delF508-CFTR, the “MTECC24 CFHBEC- Amax %” value is 61.1% and the EC50 is 10.6 nM. In addition, the Emax in assay [1] (setting [2]) came out at 427%. The EC50 in assay [1] (setting [3]) amounted to 1710 nM.

Consider `CCCC1(C(=O)O)CCN(c2cccc(S(=O)(=O)Nc3ccc(C(F)(F)F)c(-c4ccccc4CC)n3)n2)CC1` [Example 351, 1-(6-{[6-(2-ethylphenyl)-5-(trifluoromethyl)pyridin-2-yl]sulfamoyl}pyridin-2-yl)-4-propylpiperidine-4-carboxylic Acid], for which, on delF508-CFTR, the “MTECC24 CFHBEC- Amax %” value is on record as 99.7% and the EC50 stood at 107 nM. Besides, the Emax in assay [1] (setting [2]) amounted to 492%. Besides, the EC50 in assay [1] (setting [3]) turned out to be 870 nM.

`Cc1ccccc1-c1nc(NS(=O)(=O)c2cccc(N3CC4CCC(C3)N4)n2)ccc1C(F)(F)F` [Example 181, 6-(3,8-diazabicyclo[3.2.1]octan-3-yl)-N-(6-(o-tolyl)-5-(trifluoromethyl)pyridin-2-yl)pyridine-2-sulfonamide Hydrochloride]: the “MTECC24 CFHBEC- Amax %” value at delF508-CFTR is 101.5%. Besides, the EC50 came to 39.8 nM on delF508-CFTR and 2670 nM in assay [1]. For the same molecule, the Emax in assay [1] (CFBE41o-) worked out at 454%.

As for `Cc1ccc(F)cc1-c1nc(NS(=O)(=O)c2ccnc(N)c2)ccc1C(F)(F)F` [Example 42, 2-amino-N-(6-(5-fluoro-2-methylphenyl)-5-(trifluoromethyl)pyridin-2-yl)pyridine-4-sulfonamide], on delF508-CFTR, the “MTECC24 CFHBEC- Amax %” value came to 72.4% and the EC50 came to 39.9 nM. The Emax in assay [1] (setting [2]) was determined as 367%. Besides, the EC50 in assay [1] (setting [3]) amounted to 2260 nM.

For `Cc1ccccc1-c1nc(NS(=O)(=O)c2cccc(OC3CCC(C(=O)O)CC3)n2)ccc1C(F)(F)F` (centres unmarked) [Example 342, 4-((6-(N-(6-(o-tolyl)-5-(trifluoromethyl)pyridin-2-yl)sulfamoyl)pyridin-2-yl)oxy)cyclohexanecarboxylic Acid], the “MTECC24 CFHBEC- Amax %” value on delF508-CFTR is given as 85.8%. Moreover, the EC50 came out at 80.2 nM on delF508-CFTR and 1900 nM in assay [1] (setting [3]). The Emax in assay [1] (setting [2]) came to 266%.

As to `Cc1c(C#N)cccc1-c1nc(NS(=O)(=O)c2cccc(N)n2)ccc1Cl` [Example 67, 6-amino-N-(5-chloro-6-(3-cyano-2-methylphenyl)pyridin-2-yl)pyridine-2-sulfonamide], the “MTECC24 CFHBEC- Amax %” value at delF508-CFTR was determined as 45.8%. The EC50 at delF508-CFTR is 114 nM; in assay [1] (setting [3]), 1840 nM. In assay [1] (setting [2]), the Emax came out at 214%.

With `Cc1ccccc1-c1nc(NS(=O)(=O)c2cccc(N3CCN(C(=O)CN)CC3)n2)ccc1C(F)(F)F` [Example 191, 6-(4-glycylpiperazin-1-yl)-N-(6-(o-tolyl)-5-(trifluoromethyl)pyridin-2-yl)pyridine-2-sulfonamide hydrochloride], at delF508-CFTR, the “MTECC24 CFHBEC- Amax %” value is given as 64.4% and the EC50 was 101 nM. The Emax in assay [1] (setting [2]) was determined as 206%. Besides, in assay [1] (setting [3]), the EC50 was 3860 nM.
